According to patent US20250134875A1, “FORMULATIONS OF ALK-5 KINASE INHIBITORS AND USES THEREOF” (Thirona Bio, Inc., priority 2023, published 2025):

Tested on: profibrotic genes
Assay: Gene expression (RNA sequencing) in surgical incision-induced dermal fibrosis model
Type: in vivo, Göttingen minipig
Protocol: Minipig skin is more similar to human skin than rodent skin, and dermal delivery of topical ALK-5 kinase inhibitor Compound 1 in minipigs is expected to be reflective of treatment of human skin. Therefore, a model of surgical incision-induced dermal fibrosis was established in minipigs and the effects of topical Compound 1 were evaluated by visual assessment, histologic examination and gene expression by RNA sequencing.
The study was conducted in 4 female Göttingen SPF minipigs. On Day 1, eight full thickness incisional wounds, four on each side, were performed on each animal. Compound 1 0% (Vehicle), 0.1%, 0.3% or 1% was applied topically twice daily for 14 days from Day 7 through Day 20 on each incision. All animals received a dose volume of 160 μl per wound ([…] applied to a 32 cm2 area surrounding each incision). Clinical signs, visual observations of incisions, body weight and food consumption were recorded during the in-life period. At necropsy (Day 21) two biopsies were collected from each incision for histopathology and gene expression analysis.
For gene expression analysis, a 0.3 cm punch biopsy was collected from the incisional wounds. Samples were collected and stored overnight in prefilled tubes containing RNAlater at 5±3° C., and then transferred to a freezer and stored at ˜−20° C. The biopsies collected were then thawed and subjected to RNA purification and then generation of mRNA-enriched cDNA libraries for Illumina sequencing. RNA sequencing was performed to a depth of ˜15 million reads followed by bioinformatic analysis, including differential gene expression analysis.

[1] = topical 0.1%, 0.3% or 1% twice daily Day 7-20, biopsy Day 21

SMILES: Cc1cccc(-n2ncc(C)c2-c2cc3cnccc3s2)n1 [Compound 1]
- Gene expression of the profibrotic genes investigated (FIG. 7): consistent tendency to dose-dependently reduce gene expression
- Change in gene expression, ADAM12 [1]: −52%
- Change in gene expression, ADAMTS14 [1]: −52%
- Change in gene expression, BMP1 [1]: −47%
- Change in gene expression, COL1A1 [1]: −49%
- Change in gene expression, COL1A2 [1]: −48%
- Change in gene expression, COL3A1 [1]: −49%
- Change in gene expression, MMP2 [1]: −52%
- Change in gene expression, MMP9 [1]: −54%
- Change in gene expression, MMP14 [1]: −42%
- Change in gene expression, TGF-β1 [1]: up to −23%
- Change in gene expression, TGF-β2 [1]: ≤ −32%
- Change in gene expression, TGF-β3 [1]: ≤ −49%
- Change in gene expression, THBS4 [1]: −67%
- Change in gene expression, TIMP1 [1]: −17%
- Change in gene expression, TIMP2 [1]: −46%
